Measured values as given in patent US20220242863A1, “COMPOUNDS FOR TREATMENT OF EYE DISORDERS” (SINOPSEE THERAPEUTICS, priority 2019, published 2022).
Like-named read-outs stand apart in the source and are kept apart here.

Columns and labels:
[1] = test system: BA/F3 cells expressing PDGFR; test: Cell viability by MTS assay (MTS Assay 1); format: cell-based; details: for Activity in MTS cell viability assay compared to imatinib and quizartinib controls: Ba/F3 cells expressing PDGFR, FIG. 2
Experimental: (§1) The effect of the compounds on cell viability were determined using MTS assay. MTS Cell Proliferation Assay Kit is a colorimetric method for sensitive quantification of viable cells in proliferation and cytotoxicity assay. The method is based on the reduction of MTS tetrazolium compound by viable cells to generate a colored formazan product that is soluble in cell culture media. BA/F3 cells expressing the receptor tyrosine kinase (either PDGFR [MTS Assay 1] or FIt3 [MTS Assay 2]) were cultured in standard culture conditions in a 96-well microtiter plate (final volume of 200 μl/well) in the absence or presence of the compound to be tested and were incubated for 20-48 hrs. MTS Reagent (20 μl/well) was added into each well & incubated for 0.5-4 hours at 37° C. in standard culture conditions. Absorbance at 490 nm was recorded using a plate reader.
(§2) Results are shown in FIGS. 2 and 3 and Table 2 (where IC50 indicates the concentration of compound required to reduce cell viability to 50%).
For the MTS Assay, the result indicates the concentration of compound required to reduce cell viability to 50%.

[2] = test system: BA/F3 cells expressing FIt3; test: Cell viability by MTS assay (MTS Assay 2); format: cell-based; details: Mus musculus, BaF3, concentration required to reduce cell viability to 50%, 20-48 hrs
Experimental: as §1, §2
In Table 3: • L represents an IC50 of less than 500 nM • M represents an IC50 of between 500 nM and 5000 nM • H represents an IC50 of more than 5000 nM • For the MTS Assay, the result indicates the concentration of compound required to reduce cell viability to 50%.

CDK19 = CDK19 (Homo sapiens, UniProt Q9BWU1); test: In vitro kinase assay ([γ-33P]-ATP); format: biochemical; details: ATP at apparent Km of the kinase
Experimental: (§3) To determine the inhibitory activity of compounds, in vitro kinase assays were performed on respective enzymes purified from Sf9 insect cells or E. coli as recombinant GST-fusion proteins or His-tagged proteins.

CDK8 = CDK8 (Homo sapiens, UniProt P49336); test: In vitro kinase assay ([γ-33P]-ATP); format: biochemical; details: ATP at apparent Km of the kinase
Experimental: as §3

Flt3 = target: T1, Flt3 (Homo sapiens, UniProt P36888); test: In vitro kinase assay ([γ-33P]-ATP); format: biochemical; details: ATP at apparent Km of the kinase
T1 sequence (P36888 27-993): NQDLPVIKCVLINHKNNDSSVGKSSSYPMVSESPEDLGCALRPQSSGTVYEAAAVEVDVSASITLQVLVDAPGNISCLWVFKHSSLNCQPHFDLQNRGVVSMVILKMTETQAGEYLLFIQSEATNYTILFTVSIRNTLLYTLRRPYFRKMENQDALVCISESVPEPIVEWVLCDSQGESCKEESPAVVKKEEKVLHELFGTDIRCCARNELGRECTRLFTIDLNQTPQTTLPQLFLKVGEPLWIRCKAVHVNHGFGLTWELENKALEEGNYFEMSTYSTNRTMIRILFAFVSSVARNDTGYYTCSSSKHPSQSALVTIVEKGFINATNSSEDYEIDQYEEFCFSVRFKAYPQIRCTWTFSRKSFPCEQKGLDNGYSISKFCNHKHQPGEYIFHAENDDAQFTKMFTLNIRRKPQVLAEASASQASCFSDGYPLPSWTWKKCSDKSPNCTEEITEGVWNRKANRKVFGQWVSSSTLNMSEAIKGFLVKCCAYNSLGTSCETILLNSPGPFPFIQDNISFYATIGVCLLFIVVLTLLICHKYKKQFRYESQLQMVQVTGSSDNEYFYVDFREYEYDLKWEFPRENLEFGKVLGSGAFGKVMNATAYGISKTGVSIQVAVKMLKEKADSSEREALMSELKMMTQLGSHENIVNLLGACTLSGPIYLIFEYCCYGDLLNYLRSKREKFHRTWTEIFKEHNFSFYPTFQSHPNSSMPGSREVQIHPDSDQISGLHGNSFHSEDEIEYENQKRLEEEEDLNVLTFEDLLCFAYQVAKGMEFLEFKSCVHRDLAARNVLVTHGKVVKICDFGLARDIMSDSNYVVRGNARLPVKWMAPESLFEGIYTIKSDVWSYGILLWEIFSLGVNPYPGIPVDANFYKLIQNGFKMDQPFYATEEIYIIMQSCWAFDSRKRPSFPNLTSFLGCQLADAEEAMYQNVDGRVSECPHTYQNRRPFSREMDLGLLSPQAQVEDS
Experimental: as §3

PDGFR-α = PDGFR-α (Homo sapiens, UniProt P16234); test: In vitro kinase assay ([γ-33P]-ATP); format: biochemical; details: ATP at apparent Km of the kinase
Experimental: as §3

PDGFRβ [3] = target: T2, PDGFRβ (Homo sapiens, UniProt P09619); test: In vitro kinase assay ([γ-33P]-ATP); format: biochemical; details: ATP at apparent Km of the kinase
Experimental: as §3

VEGFR-2 = VEGFR-2 (Homo sapiens, UniProt P35968); test: In vitro kinase assay ([γ-33P]-ATP); format: biochemical; details: ATP at apparent Km of the kinase
Experimental: as §3

PDGFRβ [4] = target: T2, PDGFRβ; test: Western blot of PDGFRβ autophosphorylation and Shp2 phosphorylation in HEK293 cell line model; format: cell-based; set-up: expressed in transfected cells; host or cells: HEK293; details: HEK293 cells expressing PDGFRβ, 20 ng/ml PDGF; FIG. 1
Experimental: Human Embryonic kidney cells (HEK293) were constructed to express human PDGFRWT under the control of constitutive CMV promoter. Cells were grown in the presence of 20 ng/ml PDGF (the ligand for the PDGFRβ) to activate the PDGFRβ. Different concentrations of the compounds of Examples 1 and 2 were added to study their effect on the PDGFRβ-mediated signaling. Autophosphorylation of PDGFRβ and Shp2 phosphorylation were monitored by Western blotting and were used as the markers for PDGFRβ signaling. β-Actin was used as an internal control.

[5] = Mus musculus, BaF3, concentration required to reduce cell viability to 50%, BA/F3 cells expressing PDGFR, 20-48 hrs, read-out: IC50 (nM) MTS Assay 1

Chain of PDGFR-α (P16234 24-1089): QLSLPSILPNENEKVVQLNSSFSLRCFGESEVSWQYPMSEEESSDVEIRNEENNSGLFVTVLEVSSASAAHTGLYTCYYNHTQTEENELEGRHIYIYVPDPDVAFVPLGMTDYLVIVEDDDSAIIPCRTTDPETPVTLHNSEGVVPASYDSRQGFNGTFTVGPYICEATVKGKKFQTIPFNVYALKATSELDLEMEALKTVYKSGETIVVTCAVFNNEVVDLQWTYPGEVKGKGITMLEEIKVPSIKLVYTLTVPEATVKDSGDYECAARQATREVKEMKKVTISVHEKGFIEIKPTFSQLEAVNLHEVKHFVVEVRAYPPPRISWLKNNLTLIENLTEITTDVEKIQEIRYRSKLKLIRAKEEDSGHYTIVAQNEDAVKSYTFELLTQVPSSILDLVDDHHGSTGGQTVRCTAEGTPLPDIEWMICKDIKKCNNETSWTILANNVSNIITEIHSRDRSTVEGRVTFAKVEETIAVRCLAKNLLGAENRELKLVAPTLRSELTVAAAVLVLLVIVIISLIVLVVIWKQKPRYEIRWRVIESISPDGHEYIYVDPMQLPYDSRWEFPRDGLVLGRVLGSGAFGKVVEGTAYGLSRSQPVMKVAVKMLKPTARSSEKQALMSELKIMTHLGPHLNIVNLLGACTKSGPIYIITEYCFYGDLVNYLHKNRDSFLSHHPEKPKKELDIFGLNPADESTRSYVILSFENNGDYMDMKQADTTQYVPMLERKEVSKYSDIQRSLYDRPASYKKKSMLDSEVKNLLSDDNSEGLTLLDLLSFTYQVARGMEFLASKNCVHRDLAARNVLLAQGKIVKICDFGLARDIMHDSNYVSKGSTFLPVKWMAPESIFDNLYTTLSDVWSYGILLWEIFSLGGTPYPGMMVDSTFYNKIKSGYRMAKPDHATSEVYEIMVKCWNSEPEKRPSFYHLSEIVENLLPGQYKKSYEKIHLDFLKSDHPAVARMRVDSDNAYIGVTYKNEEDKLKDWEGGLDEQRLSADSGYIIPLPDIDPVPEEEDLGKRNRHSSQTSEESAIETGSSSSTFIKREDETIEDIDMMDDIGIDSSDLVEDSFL
Chain of VEGFR-2 (P35968 20-1356): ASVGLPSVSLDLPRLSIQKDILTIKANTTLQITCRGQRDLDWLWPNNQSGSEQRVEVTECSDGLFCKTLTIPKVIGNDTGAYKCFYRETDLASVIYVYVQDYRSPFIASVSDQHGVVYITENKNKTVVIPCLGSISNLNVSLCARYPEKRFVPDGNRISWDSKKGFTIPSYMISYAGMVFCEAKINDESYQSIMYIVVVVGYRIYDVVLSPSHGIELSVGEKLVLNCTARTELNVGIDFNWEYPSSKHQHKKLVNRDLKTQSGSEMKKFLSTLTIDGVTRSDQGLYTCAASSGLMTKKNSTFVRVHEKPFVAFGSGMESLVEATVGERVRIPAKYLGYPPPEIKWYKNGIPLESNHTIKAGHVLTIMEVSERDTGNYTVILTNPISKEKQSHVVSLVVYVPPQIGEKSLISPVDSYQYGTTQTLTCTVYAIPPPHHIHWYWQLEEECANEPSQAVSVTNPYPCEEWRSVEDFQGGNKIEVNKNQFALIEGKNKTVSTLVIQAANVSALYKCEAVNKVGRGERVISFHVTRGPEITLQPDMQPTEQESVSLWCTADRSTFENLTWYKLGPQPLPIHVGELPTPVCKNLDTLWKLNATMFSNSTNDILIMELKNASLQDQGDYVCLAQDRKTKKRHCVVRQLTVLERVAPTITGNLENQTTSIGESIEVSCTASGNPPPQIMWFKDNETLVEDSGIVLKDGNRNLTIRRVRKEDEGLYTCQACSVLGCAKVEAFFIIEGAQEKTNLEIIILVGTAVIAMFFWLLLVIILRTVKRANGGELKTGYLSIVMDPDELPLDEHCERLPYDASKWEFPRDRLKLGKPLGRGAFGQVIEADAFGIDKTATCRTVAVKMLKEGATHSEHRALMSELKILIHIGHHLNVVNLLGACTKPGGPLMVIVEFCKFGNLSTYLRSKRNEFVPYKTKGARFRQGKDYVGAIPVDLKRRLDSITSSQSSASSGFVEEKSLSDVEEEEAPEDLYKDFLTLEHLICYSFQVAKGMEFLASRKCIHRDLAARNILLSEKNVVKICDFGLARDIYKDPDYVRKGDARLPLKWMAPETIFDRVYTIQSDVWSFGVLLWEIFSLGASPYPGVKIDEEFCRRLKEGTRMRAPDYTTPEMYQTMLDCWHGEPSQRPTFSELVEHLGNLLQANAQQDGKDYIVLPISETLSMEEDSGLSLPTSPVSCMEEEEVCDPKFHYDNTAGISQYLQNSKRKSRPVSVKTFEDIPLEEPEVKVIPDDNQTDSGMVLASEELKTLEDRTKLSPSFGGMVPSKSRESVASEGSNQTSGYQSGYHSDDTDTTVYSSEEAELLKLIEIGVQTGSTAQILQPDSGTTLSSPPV
Chain of CDK19 (Q9BWU1 whole entry, species assumed, the tested form may be a part): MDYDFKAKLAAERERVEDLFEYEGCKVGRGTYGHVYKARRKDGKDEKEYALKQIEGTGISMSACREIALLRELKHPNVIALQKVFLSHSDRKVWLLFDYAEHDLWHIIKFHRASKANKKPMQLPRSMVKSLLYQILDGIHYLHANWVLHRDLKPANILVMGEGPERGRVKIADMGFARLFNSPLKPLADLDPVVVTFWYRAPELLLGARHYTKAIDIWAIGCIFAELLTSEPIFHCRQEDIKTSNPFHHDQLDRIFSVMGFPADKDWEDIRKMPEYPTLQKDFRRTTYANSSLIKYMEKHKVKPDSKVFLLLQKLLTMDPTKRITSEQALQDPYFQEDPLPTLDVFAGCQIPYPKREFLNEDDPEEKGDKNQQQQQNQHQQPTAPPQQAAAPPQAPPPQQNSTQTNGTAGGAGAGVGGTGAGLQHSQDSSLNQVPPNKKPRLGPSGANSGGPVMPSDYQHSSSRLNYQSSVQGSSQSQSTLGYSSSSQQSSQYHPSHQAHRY
Chain of CDK19 (P24863 whole entry partner, species assumed, the tested form may be a part): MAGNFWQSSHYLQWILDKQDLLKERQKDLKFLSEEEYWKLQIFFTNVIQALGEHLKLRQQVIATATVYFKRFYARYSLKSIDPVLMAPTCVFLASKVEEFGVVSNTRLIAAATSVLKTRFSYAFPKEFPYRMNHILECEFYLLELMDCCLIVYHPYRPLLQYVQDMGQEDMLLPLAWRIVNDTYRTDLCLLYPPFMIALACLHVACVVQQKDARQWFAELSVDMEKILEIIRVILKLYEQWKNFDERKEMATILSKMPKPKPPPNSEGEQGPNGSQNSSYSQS
Chain of CDK8 (P49336 whole entry, species assumed): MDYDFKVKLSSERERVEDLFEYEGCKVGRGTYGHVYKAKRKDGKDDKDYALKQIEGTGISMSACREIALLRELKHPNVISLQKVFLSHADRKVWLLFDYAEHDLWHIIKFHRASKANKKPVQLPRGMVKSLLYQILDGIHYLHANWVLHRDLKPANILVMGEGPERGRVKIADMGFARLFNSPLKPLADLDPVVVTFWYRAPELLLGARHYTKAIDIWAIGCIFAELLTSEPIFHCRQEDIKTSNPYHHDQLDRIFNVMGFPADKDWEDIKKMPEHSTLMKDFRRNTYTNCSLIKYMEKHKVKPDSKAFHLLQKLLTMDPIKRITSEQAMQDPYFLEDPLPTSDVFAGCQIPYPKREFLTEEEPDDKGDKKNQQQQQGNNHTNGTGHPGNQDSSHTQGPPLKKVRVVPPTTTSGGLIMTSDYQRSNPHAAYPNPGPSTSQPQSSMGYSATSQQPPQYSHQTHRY
Chain of CDK8 (P24863 whole entry partner, species assumed): as the sequence (P24863 whole entry partner, species assumed, the tested form may be a part) above
T2 sequence (P09619 33-1106): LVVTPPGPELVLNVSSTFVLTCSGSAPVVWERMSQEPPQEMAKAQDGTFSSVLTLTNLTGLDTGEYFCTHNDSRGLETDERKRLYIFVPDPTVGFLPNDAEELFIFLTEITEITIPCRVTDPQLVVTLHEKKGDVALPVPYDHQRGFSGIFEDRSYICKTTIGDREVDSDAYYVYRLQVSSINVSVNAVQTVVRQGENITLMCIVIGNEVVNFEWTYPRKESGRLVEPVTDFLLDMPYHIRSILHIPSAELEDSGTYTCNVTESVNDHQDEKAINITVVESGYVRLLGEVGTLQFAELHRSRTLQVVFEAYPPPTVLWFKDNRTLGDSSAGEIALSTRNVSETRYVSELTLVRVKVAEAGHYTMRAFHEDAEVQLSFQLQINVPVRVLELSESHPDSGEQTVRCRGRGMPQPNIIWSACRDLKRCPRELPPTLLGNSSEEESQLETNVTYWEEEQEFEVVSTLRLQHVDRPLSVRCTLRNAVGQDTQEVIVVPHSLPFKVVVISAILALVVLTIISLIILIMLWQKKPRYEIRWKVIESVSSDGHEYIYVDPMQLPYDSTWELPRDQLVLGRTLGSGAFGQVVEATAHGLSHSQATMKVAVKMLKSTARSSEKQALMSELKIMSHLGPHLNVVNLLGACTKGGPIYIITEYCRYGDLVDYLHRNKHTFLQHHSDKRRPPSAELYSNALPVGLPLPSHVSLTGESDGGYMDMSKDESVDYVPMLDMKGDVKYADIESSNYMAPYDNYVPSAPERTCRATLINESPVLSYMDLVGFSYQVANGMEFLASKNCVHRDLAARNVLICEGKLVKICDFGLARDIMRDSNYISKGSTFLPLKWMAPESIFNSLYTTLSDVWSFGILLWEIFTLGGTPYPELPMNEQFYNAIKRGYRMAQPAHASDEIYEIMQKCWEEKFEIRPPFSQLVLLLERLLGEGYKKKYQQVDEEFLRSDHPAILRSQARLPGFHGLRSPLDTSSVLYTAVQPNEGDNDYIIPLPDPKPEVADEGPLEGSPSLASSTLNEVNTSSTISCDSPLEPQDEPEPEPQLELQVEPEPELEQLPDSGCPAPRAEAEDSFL

Row | Compound | IC50 [1, 5] [nM] | IC50 [2] [nM] | IC50 (CDK19) [nM] | IC50 (CDK8) [nM] | IC50 (Flt3) [nM] | IC50 (PDGFR-α) [nM] | IC50 (PDGFRβ [3]) [nM] | IC50 (VEGFR-2) [nM] | IC50 ([1]; concentration required to reduce cell viability to 50%, BA/F3 cells expressing PDGFR, 20-48 hrs, read-out: IC50 (nM) MTS Assay 1) [nM] | Activity in MTS cell viability assay compared to imatinib and quizartinib controls [1] | IC50 ([1]; Mus musculus, BaF3, read-out: IC50 (nM) MTS Assay 1) [nM] | Inhibition of PDGFRβ signaling (PDGFRβ autophosphorylation, Shp2 phosphorylation) (PDGFRβ [4])
1 | Cn1nc(NC(=O)COc2ccc(-c3cnc4cnccn34)c(F)n2)cc1C(F)(F)F [Example 6] | 500 to 5000 | < 500 |  |  |  |  |  |  |  |  |  | 
2 | O=C(Nc1cc(C(F)(F)F)c(Cl)cn1)C1(Oc2ccc(-c3cnc4cnccn34)cn2)CC1 [Example 12] |  |  | > 5000 | > 5000 | > 5000 | > 5000 | > 5000 | > 5000 |  |  |  | 
3 | Cn1nc(NC(=O)COc2ccc(-c3cnc4cnccn34)cn2)cc1C(F)(F)F [Example 9] |  |  | < 500 | < 500 |  |  |  |  | < 500 |  |  | 
4 | Cc1ccc(NC(=O)COc2ccc(-c3cnc4ccc(-c5ccc(C(=O)N6CCOCC6)cc5)cn34)cc2)cc1C(F)(F)F [Example 10] | < 500 |  |  |  |  |  |  |  |  |  |  | 
5 | Cc1cnc(NC(=O)COc2ccc(-c3cnc4cnccn34)cn2)cc1C(F)(F)F [Example 3] |  |  |  |  |  |  |  |  |  | improved activity when compared to the imatinib and quizartinib controls |  | 
6 | Cn1nc(NC(=O)COc2ccc(-c3cnc4ccccn34)cn2)cc1C(F)(F)F [Example 1] |  | < 500 | < 500 | < 500 | < 500 | < 500 | < 500 | < 500 |  | improved activity when compared to the imatinib and quizartinib controls | < 500 | able to inhibit PDGFRβ signaling
7 | Cc1ccc(NC(=O)COc2ccc(-c3cnc4ccccn34)cn2)cc1C(F)(F)F [Example 2] |  |  |  |  |  |  |  |  |  |  |  | able to inhibit PDGFRβ signaling
8 | CC(Oc1ccc(-c2cnc3cnccn23)cn1)C(=O)Nc1cc(C(F)(F)F)c(Cl)cn1 (stereo not drawn) [Example 13] |  |  | 500 to 5000 | 500 to 5000 | > 5000 | 500 to 5000 | 500 to 5000 | 500 to 5000 |  |  |  | 
9 | Cc1ccc(NC(=O)COc2ccc(-c3cnc4cnccn34)c(F)n2)cc1C(F)(F)F [Example 7] | < 500 | < 500 |  |  |  |  |  |  |  |  |  | 
10 | Cc1ccc(NC(=O)c2ccc(Nc3cnc4cnccn34)cc2)cc1C(F)(F)F [Example 14] |  |  | 500 to 5000 | 500 to 5000 | > 5000 | > 5000 | > 5000 | > 5000 |  |  |  | 

More lines, main results first:

Row | IC50 [1, 5] [nM] | IC50 [2] [nM] | IC50 (CDK19) [nM] | IC50 (CDK8) [nM] | IC50 (Flt3) [nM] | IC50 (PDGFR-α) [nM] | IC50 (PDGFRβ [3]) [nM] | IC50 (VEGFR-2) [nM] | Compound | IC50 ([1]; concentration required to reduce cell viability to 50%, BA/F3 cells expressing PDGFR, 20-48 hrs, read-out: IC50 (nM) MTS Assay 1) [nM] | Activity in MTS cell viability assay compared to imatinib and quizartinib controls [1] | IC50 ([1]; Mus musculus, BaF3, read-out: IC50 (nM) MTS Assay 1) [nM] | Inhibition of PDGFRβ signaling (PDGFRβ autophosphorylation, Shp2 phosphorylation) (PDGFRβ [4])
11 |  |  | < 500 | < 500 | < 500 | < 500 | < 500 | < 500 | Cn1nc(NC(=O)COc2ccc(-c3cnn4cccnc34)cc2)cc1C(F)(F)F [Example 19] |  |  |  | 
12 |  |  | < 500 | < 500 | < 500 | < 500 | < 500 | < 500 | O=C(CNc1ccc(-c2cnc3cnccn23)cc1)Nc1cc(C(F)(F)F)c(Cl)cn1 [Example 16] |  |  |  | 
13 |  |  | < 500 | < 500 | < 500 | < 500 | < 500 | < 500 | Cn1nc(NC(=O)CNc2ccc(-c3cnc4cnccn34)cc2)cc1C(F)(F)F [Example 17] |  |  |  | 
14 |  | < 500 | < 500 | < 500 | < 500 | < 500 | < 500 | < 500 | Cc1ccc(NC(=O)CNc2ccc(-c3cnc4cnccn34)cc2)cc1C(F)(F)F [Example 15] |  |  |  | 
15 |  |  | < 500 | < 500 | < 500 | < 500 | < 500 | < 500 | Cn1nc(NC(=O)CNc2ccc(-c3cnc4cnccn34)c(F)c2)cc1C(F)(F)F [Example 18] |  |  |  | 
